Results as given in article PMC8400955 (Pharmaceuticals, 2021).
Where “and” joins values, the source holds several entries; their conditions need not be identical. Equal entries are not always repeated.

What was measured:
[1] = Plasma protein binding by equilibrium dialysis, human; format: in vitro ADME; conditions: plasma (EDTA-K2 as anticoagulant)
Experimental: (§1) The in vitro binding of ZB716 to plasma proteins was determined by equilibrium dialysis technique in mouse, rat, dog, monkey, and human plasma (EDTA-K2 as anticoagulant), over the concentration range of 0.1–10 μM. The free concentration of ZB716 was below the lower limit of quantitation at 0.1, 1, and 10 μM in human, monkey, dog, rat, and mouse plasma.
(§2) The equilibrium dialysis method was used to investigate the in vitro binding of ZB716 to human, monkey, dog, rat, and mouse plasma proteins. The dialysis phosphate buffer solution (100 mM, pH 7.4) and plasma samples containing 0.1, 1, and 10 μM of ZB716 were added to separate chambers of dialysis wells of the HTDialysis device. The dialysis plate was placed in an incubator at 37 °C with 5% CO2 at approximately 100 rpm for 6 h. After incubation, the seal was removed, and 50 μL each of post-dialysis samples was pipetted from both the buffer and plasma chambers into fresh 96-well plates. The samples were analyzed via UPLC–MS/MS. The bound fraction, unbound fraction, recovery (%), and remaining (%) were calculated by Equations (2)–(5):%Unbound = (Conc.buffer chamber/Conc.plasma chamber) × 100(2) %Bound = 100% − %Unbound (3) %Recovery = (Conc.buffer chamber + Conc.plasma chamber)/Conc.Total sample × 100 (4) %Remaining = Conc.6h/Conc.0h × 100 (5)

human plasma proteins = experiment: as above; format: in vitro ADME; conditions: for Remaining: 6 h
Experimental: as §1, §2

[2] = Plasma protein binding by equilibrium dialysis, dog; format: in vitro ADME; conditions: plasma (EDTA-K2 as anticoagulant)
Experimental: as §1, §2

dog plasma proteins = experiment: as above; format: in vitro ADME; conditions: for Remaining: 6 h
Experimental: as §1, §2

CYP1A2 = target: T1, CYP1A2 (Homo sapiens, UniProt P05177); experiment: CYP inhibition in human liver microsomes, CYP1A2; format: in vitro ADME; conditions: HLM, marker substrate Phenacetin
T1 sequence (P05177 1-516): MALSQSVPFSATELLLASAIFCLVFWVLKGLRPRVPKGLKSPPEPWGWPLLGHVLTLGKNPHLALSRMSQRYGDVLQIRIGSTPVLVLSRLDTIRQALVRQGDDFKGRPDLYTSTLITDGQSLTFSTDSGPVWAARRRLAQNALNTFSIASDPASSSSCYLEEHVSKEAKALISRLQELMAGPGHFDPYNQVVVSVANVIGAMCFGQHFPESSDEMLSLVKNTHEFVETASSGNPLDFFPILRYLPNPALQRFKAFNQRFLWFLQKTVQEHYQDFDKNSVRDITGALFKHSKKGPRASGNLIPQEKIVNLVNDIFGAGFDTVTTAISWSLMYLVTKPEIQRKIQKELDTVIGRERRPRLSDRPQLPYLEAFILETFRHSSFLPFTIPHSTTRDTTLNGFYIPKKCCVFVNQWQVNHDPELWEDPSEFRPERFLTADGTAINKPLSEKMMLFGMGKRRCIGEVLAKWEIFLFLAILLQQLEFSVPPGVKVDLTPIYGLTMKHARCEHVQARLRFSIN
Experimental: (§3) . The inhibition of CYP2B6 and 3A4 (when midazolam was used as the substrate) by ZB716 was not observed. The inhibitory potential of ZB716 on human CYP enzyme activities appears relatively low.
(§4) The final concentrations of ZB716 in the incubation system were 0, 0.05, 0.15, 0.5, 1.5, 5, and 15 µM (final organic solvent concentration ≤ 1%). […] . […] The concentrations of the isoform-specific metabolites derived from marker substrates were measured by UPLC–MS/MS. The IC50 values were calculated from the percentages of the rate of the metabolite formation relative to non-inhibited controls vs. the concentrations of ZB716 or positive control inhibitors. All incubations were performed in triplicate. The mean of the enzyme activity (% of non-inhibited control) for each concentration was plotted against the log inhibitor concentration, and fitted to an IC50 curve.

CYP2C9 = CYP2C9 (Homo sapiens, UniProt P11712); experiment: CYP inhibition in human liver microsomes, CYP2C9; format: in vitro ADME; conditions: HLM, marker substrate Diclofenac
Experimental: as §3, §4

[3] = Metabolic stability in rat hepatocytes; format: in vitro ADME
Experimental: (§5) Hepatocytes of humans (#X008001), dogs (#M00205), rats (#M00005), and mice (#M005052) were purchased from BioIVT, NY, USA. Monkey hepatocytes were procured from RILD, Shanghai, China. The metabolic stability of ZB716 in human, monkey, dog, rat and mouse hepatocytes was investigated by incubating ZB716 with human, monkey, dog, rat, and mouse hepatocytes (0.5 × 10^6 cells/mL), or with incubation medium only.
(§6) parent disappearance vs. incubation time curve.
(§7) Scaled-up Clint = kV/N × Scaling Factor
(§8) metabolite formed during the reaction.

rat hepatocytes = experiment: Metabolic stability in rat hepatocytes; format: in vitro ADME; conditions: 1 μM
Experimental: as §5, §6, §7, §8

CYP2A6 = CYP2A6 (Homo sapiens, UniProt P11509); experiment: CYP phenotyping, recombinant CYP2A6
CYP2D6 = CYP2D6 (Homo sapiens, UniProt P10635); experiment: CYP phenotyping, recombinant CYP2D6
CYP2C19 = CYP2C19 (Homo sapiens, UniProt P33261); experiment: CYP phenotyping, recombinant CYP2C19
Chain of CYP2C19 (P33261 whole entry): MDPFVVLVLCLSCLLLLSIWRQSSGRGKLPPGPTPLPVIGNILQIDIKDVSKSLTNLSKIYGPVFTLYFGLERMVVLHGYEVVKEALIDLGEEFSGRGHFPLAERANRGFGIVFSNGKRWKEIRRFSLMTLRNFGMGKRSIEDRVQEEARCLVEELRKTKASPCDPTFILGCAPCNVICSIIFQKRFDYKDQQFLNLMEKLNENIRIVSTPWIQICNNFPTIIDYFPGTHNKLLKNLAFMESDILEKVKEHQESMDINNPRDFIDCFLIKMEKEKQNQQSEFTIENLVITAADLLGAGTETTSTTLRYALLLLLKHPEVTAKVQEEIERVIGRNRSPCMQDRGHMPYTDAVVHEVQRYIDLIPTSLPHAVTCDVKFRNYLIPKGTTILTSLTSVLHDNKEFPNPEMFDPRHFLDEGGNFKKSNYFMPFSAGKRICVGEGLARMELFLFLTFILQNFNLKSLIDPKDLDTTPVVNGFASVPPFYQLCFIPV

Chain of CYP2D6 (P10635 whole entry): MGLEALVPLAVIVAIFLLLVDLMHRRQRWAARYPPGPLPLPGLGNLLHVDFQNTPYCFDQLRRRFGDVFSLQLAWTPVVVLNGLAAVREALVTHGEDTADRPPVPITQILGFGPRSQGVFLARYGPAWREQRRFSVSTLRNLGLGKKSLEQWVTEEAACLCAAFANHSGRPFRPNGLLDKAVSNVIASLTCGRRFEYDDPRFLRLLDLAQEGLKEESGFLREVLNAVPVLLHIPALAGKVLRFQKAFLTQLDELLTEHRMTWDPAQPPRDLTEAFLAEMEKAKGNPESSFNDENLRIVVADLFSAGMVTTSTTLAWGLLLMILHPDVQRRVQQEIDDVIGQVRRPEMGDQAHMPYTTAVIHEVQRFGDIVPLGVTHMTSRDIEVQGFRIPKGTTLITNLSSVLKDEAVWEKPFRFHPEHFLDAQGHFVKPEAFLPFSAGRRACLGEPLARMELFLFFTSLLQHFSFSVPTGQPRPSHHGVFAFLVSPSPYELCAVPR
Chain of CYP2A6 (P11509 whole entry): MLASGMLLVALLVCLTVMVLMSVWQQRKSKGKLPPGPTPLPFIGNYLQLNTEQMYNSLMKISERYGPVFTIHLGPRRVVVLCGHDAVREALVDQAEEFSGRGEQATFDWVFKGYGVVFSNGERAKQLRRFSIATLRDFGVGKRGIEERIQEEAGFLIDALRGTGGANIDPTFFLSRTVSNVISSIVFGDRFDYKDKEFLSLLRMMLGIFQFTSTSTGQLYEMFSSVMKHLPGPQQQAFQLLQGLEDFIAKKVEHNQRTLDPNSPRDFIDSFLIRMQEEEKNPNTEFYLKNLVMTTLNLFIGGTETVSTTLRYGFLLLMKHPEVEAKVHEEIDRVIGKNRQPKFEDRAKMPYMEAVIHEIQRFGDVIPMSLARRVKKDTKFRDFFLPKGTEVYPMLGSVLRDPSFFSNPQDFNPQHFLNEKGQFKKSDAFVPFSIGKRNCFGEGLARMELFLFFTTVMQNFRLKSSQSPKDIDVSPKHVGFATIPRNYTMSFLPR
Chain of CYP2C9 (P11712 whole entry): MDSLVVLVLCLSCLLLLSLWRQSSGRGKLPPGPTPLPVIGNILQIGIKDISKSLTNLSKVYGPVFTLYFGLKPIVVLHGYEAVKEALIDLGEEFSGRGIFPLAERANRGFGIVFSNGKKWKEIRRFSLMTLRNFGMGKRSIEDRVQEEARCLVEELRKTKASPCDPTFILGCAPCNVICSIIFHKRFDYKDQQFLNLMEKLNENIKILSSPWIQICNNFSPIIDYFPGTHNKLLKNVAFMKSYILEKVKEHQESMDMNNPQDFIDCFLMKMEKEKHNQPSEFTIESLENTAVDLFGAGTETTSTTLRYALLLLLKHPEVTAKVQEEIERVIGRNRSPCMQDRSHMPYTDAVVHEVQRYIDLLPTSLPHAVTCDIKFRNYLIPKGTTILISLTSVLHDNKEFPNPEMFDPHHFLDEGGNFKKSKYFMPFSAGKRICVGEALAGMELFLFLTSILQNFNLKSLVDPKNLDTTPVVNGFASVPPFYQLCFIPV

C[C@]12CC[C@@H]3c4ccc(B(O)O)cc4C[C@@H](CCCCCCCCC[S+]([O-])CCCC(F)(F)C(F)(F)F)[C@H]3[C@@H]1CC[C@@H]2O (stereo partly shown) [ZB716, fulvestrant-3-boronic acid]
recovery at 6 h, 0.1 μM ([1]; pH 7.4, 0.1 μM): < 69.1%
recovery at 6 h, 1 μM ([1]; pH 7.4, 1 μM): < 64%
recovery at 6 h, 10 μM ([1]; pH 7.4, 10 μM): < 74.7%
Bound (human plasma proteins; 0.1 μM): >95.7%
Unbound (human plasma proteins; 0.1 μM): <4.33%
Remaining (human plasma proteins; 0.1 μM): 57.0 ± 7.7%
Bound (human plasma proteins; 1 μM): >99.6%
Unbound (human plasma proteins; 1 μM): <0.392%
Remaining (human plasma proteins; 1 μM): 57.9 ± 4.9%
Bound (human plasma proteins; 10 μM): >99.96%
Remaining (human plasma proteins; 10 μM): 74.5 ± 3.4%
recovery at 6 h, 0.1 μM ([2]; pH 7.4, 0.1 μM): < 63.5%
recovery at 6 h, 1 μM ([2]; pH 7.4, 1 μM): < 64.9%
recovery at 6 h, 10 μM ([2]; pH 7.4, 10 μM): < 68.7%
Bound (dog plasma proteins; 0.1 μM): >95.6%
Remaining (dog plasma proteins; 0.1 μM): 39.1 ± 1.8%
Bound (dog plasma proteins; 1 μM): >99.6%
Unbound (dog plasma proteins; 1 μM): <0.373%
Remaining (dog plasma proteins; 1 μM): 53.2 ± 4.4%
Bound (dog plasma proteins; 10 μM): >99.96%
Unbound (dog plasma proteins; 10 μM): <0.0412%
Remaining (dog plasma proteins; 10 μM): 65.2 ± 4.3%
IC50 (CYP1A2): > 15 µM
IC50 (CYP2C9): 4.77 µM
half-life at 1 μM ([3]; read-out: Estimated In Vitro t1/2): 28.4 ± 0.9 min
hepatocyte CLint at 1 μM ([3]; read-out: In Vitro Clint): 48.7 ± 1.5 µL/min/1e6 cells
CLint scaled at 1 μM ([3]; read-out: Scaled-Up Clint): 228 ± 7 mL/min/kg
Remaining at 120 min (rat hepatocytes): 5.19 ± 0.32%
half-life at 2 µM (CYP2A6; human): 16.6 ± 0.6 min
Clint (CYP2A6; recombinant CYP2A6, 2 µM ZB716): 0.836 ± 0.028 µL/min/pmol CYP
half-life at 2 µM (CYP2D6; human): 18.3 ± 3.3 min
Clint (CYP2D6; recombinant CYP2D6, 2 µM ZB716): 0.773 µL/min/pmol CYP and 0.773 ± 0.142 µL/min/pmol CYP
half-life at 2 µM (CYP2C19; human): 21.6 ± 2 min
Clint (CYP2C19; recombinant CYP2C19, 2 µM ZB716): 0.646 ± 0.063 µL/min/pmol CYP
